US9751854B2 (Millennium Pharmaceuticals, Inc., priority 2014, dated 2017)

Target: human VPS34 (Homo sapiens (Human), UniProt Q8NEB9)
Experiment: Human VPS34 enzyme assay (Adapta TR-FRET ADP detection)
Type: biochemical
Design: Percent Inhibition: dose or concentration left out as unconfirmed
Conditions: not given

Chain of human VPS34 (Q8NEB9 whole entry): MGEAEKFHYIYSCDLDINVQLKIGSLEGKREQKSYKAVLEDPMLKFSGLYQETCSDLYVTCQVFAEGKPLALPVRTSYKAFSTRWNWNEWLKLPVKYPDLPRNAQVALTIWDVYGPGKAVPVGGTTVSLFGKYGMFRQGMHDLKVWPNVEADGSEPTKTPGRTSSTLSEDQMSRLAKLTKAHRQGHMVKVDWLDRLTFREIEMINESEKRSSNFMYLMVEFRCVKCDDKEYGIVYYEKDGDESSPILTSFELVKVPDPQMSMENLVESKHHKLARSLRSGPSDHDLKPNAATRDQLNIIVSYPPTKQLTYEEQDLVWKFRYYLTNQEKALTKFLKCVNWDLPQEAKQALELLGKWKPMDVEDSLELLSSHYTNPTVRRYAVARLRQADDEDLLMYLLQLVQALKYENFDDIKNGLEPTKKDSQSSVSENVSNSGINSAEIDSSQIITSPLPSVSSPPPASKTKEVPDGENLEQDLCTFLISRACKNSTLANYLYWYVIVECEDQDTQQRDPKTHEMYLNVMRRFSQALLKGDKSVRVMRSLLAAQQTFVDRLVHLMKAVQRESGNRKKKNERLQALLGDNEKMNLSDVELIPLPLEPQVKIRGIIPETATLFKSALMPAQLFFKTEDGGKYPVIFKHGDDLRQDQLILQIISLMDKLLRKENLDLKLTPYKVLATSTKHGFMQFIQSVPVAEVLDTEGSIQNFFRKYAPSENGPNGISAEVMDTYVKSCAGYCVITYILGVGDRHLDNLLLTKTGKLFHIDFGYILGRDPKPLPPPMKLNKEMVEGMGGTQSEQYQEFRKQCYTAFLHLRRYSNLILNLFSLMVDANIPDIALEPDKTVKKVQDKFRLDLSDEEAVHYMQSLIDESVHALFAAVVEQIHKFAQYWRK

In the case of `CC(=O)Nc1cc(-c2cnc(C)c(NS(=O)(=O)c3nccn3C)c2)ccn1` [Compound I-92], the “Percent Inhibition” value is reported as greater than 99%.

Same assay, conditions: IC50 range class

`CC(=O)Nc1cc(-c2cnc(N)c(S(=O)(=O)N(C)Cc3ccccc3)c2)ccn1` [Compound I-76, N-{6-amino-5-[benzyl(methyl)sulfamoyl]-3,4′-bipyridin-2′-yl}acetamide] and `CC(=O)Nc1cc(-c2cnc(N)c(S(=O)(=O)N(C)C)c2)ccn1` [Compound I-119, N-[6-amino-5-(dimethylsulfamoyl)-3,4′-bipyridin-2′-yl]acetamide] cannot be ordered by IC50: less than 10 nM for the first, less than 10 nM for the second.

First: CC(=O)Nc1cc(-c2cnc(N)c(S(=O)(=O)N(C(C)C)C(C)C)c2)ccn1 [Compound I-77, N-[6-amino-5-(diisopropylsulfamoyl)-3,4′-bipyridin-2′-yl]acetamide]
Second: CC(=O)Nc1cc(-c2cnc(N)c(S(C)(=O)=O)c2)ccn1 [Compound I-95, N-[6-amino-5-(methylsulfonyl)-3,4′-bipyridin-2′-yl]acetamide]
The IC50 of the first is lower: less than 10 nM for the first, 10 to 50 nM for the second. The first is the more potent here.

`CC(=O)Nc1cc(-c2cnc(C)c(NS(=O)(=O)c3cccc4ccccc34)c2)ccn1` [Compound I-78, N-[6-methyl-5-[(1-naphthylsulfonyl)amino]-3,4′-bipyridin-2′-yl}acetamide] and `CC(=O)Nc1cc(-c2cnc(C)c(NS(=O)(=O)c3ccccc3Cl)c2)ccn1` [Compound I-109, N-(5-{[(2-chlorophenyl)sulfonyl]amino]-6-methyl-3,4′-bipyridin-2′-yl)acetamide] cannot be ordered by IC50: less than 10 nM for the first, less than 10 nM for the second.

Compared with `CC(=O)Nc1cc(-c2cnc(N)c(C(=O)N3CCN(C)CC3)c2)ccn1` [Compound I-79, N-[6-amino-5-[(4-methylpiperazin-1-yl)carbonyl]-3,4′-bipyridin-2′-yl}acetamide], `CC(=O)Nc1cc(-c2cnc(N)c(C(=O)N3CCC(C)CC3)c2)ccn1` [Compound I-81, N-{6-amino-5-[[4-methylpiperidin-1-yl)carbonyl]-3,4′-bipyridin-2′-yl}acetamide] is lower in IC50: 10 to 50 nM for the first, less than 10 nM for the second.

`CC(=O)Nc1cc(-c2cnc(C)c(NS(=O)(=O)c3ccc(C)cc3)c2)ccn1` [Compound I-80, N-(6-methyl-5-{[(4-methylphenyl)sulfonyl]amino]-3,4′-bipyridin-2′-yl)acetamide] and `CC(=O)Nc1cc(-c2cnc(C)c(NS(=O)(=O)c3ccc(C(F)(F)F)cc3)c2)ccn1` [Compound I-90, N-[6-methyl-5-({[4-trifluoromethyl)phenyl]sulfonyl}amino-3,4′-bipyridin-2′-yl]acetamide] cannot be ordered by IC50: less than 10 nM for the first, less than 10 nM for the second.

Compared with `CC(=O)Nc1cc(-c2cnc(N)c(C(=O)Nc3cccc(F)c3)c2)ccn1` [Compound I-82, 2′-acetamido-6-amino-N-(3-fluorophenyl)-3,4′-bipyridine-5-carboxamide], `CC(=O)Nc1cc(-c2cnc(N)c(C(=O)Nc3cccnc3)c2)ccn1` [Compound I-91, 2′-acetamido-6-amino-N-(pyridin-3-yl)-3,4′-bipyridine-5-carboxamide] is lower in IC50: 10 to 50 nM for the first, less than 10 nM for the second. The second is the more potent here.

Compared with `CC(=O)Nc1cc(-c2cnc(C)c(N(CC3CC3)S(=O)(=O)C3CC3)c2)ccn1` [Compound I-83, N-{5-[(cyclopropylmethyl)(cyclopropylsulfonyl)amino]-6-methyl-3,4′-bipyridin-2′-yl}acetamide], `CC(=O)Nc1cc(-c2cnc(C)c(NS(=O)(=O)C3CC3)c2)ccn1` [Compound I-114, N-{5-[(cyclopropylsulfonyl)amino]-6-methyl-3,4′-bipyridin-2′-yl]acetamide] is lower in IC50: greater than 100 nM for the first, 10 to 50 nM for the second.

`CC(=O)Nc1cc(-c2cnc(C)c(NS(=O)(=O)c3ccccc3)c2)ccn1` [Compound I-84, N-{6-methyl-5-[(phenylsulfonyl)amino]-3,4′-bipyridin-2′-yl}acetamide] and `CNc1ncc(-c2ccnc(NC(C)=O)c2)cc1S(=O)(=O)Nc1ccccc1` [Compound I-100, N-[6-(methylamino)-5-(phenylsulfamoyl)-3,4′-bipyridin-2′-yl]acetamide] cannot be ordered by IC50: less than 10 nM for the first, less than 10 nM for the second.

First: CC(=O)Nc1cc(-c2cnc3[nH]cc(CN(C)C)c3c2)ccn1 [Compound I-85, N-(4-{3-[(dimethylamino)methyl]-1H-pyrrolo[2,3-b]pyridin-5-yl}pyridin-2′-yl)acetamide]
Second: CC(=O)Nc1cc(-c2cnc3[nH]cc(S(=O)(=O)N4CCN(C)CC4)c3c2)ccn1 [Compound I-103, N-(4-{3-[(4-methylpiperazin-1-yl)sulfonyl]-1H-pyrrolo[2,3-b]pyridin-5-yl]pyridin-2-yl)acetamide]
The IC50 of the first is higher: greater than 100 nM for the first, less than 10 nM for the second.

`CC(=O)Nc1cc(-c2ccc(S(=O)(=O)Nc3cc(-c4ccnc(NC(C)=O)c4)cnc3C)c(F)c2)ccn1` [Compound I-86, N-(4-{4-[(2′-acetamido-6-methyl-3,4′-bipyridin-5-yl)sulfamoyl]-3-fluorophenyl}pyridin-2-yl)acetamide] and `CC(=O)Nc1cc(-c2cnc(C)c(NS(=O)(=O)c3cc(Cl)ccc3Cl)c2)ccn1` [Compound I-111, N-(5-{[(2,5-dichlorophenyl)sulfonyl]amino}-6-methyl-3,4′-bipyridin-2′-yl)acetamide] cannot be ordered by IC50: less than 10 nM for the first, less than 10 nM for the second.

First: CC(=O)Nc1cc(-c2cnc(N)c(S(=O)(=O)N3CCCC3)c2)ccn1 [Compound I-87, N-[6-amino-5-(pyrrolidin-1-ylsulfonyl)-3,4′-bipyridin-2′-yl]acetamide]
Second: CNS(=O)(=O)c1cc(-c2ccnc(NC(C)=O)c2)cnc1N [Compound I-89, N-[6-amino-5-(methylsulfamoyl)-3,4′-bipyridin-2′-yl]acetamide]
The IC50 of the first is lower: less than 10 nM for the first, 10 to 50 nM for the second.

`CC(=O)Nc1cc(-c2cnc(C)c(N3CCCS3(=O)=O)c2)ccn1` [Compound I-88, N-[5-(1,1-dioxidoisothiazolidin-2-yl)-6-methyl-3,4′-bipyridin-2′-yl]acetamide] and `CC(=O)Nc1cc(-c2cnc(C)c(N(C)S(C)(=O)=O)c2)ccn1` [Compound I-96, N-{6-methyl-5-[methyl(methylsulfonyl)amino]-3,4′-bipyridin-2′-yl}acetamide] fall in the same range of IC50: 10 to 50 nM for the first, 10 to 50 nM for the second.

First: CC(=O)Nc1cc(-c2cnc3ccn(CC4CC4)c3c2)ccn1 [Compound I-93, N-{4-[1-(cyclopropylmethyl)-1H-pyrrolo[3,2-b]pyridin-6-yl]pyridin-2-yl}acetamide]
Second: CC(=O)Nc1cc(-c2cnc3cn(S(=O)(=O)C4CC4)nc3c2)ccn1 [Compound I-105, N-{4-[2-(cyclopropylsulfonyl)-2H-pyrazolo[4,3-b]pyridin-6-yl]pyridin-2-yl}acetamide]
The IC50 of the first is lower: 10 to 50 nM for the first, greater than 100 nM for the second. The first is the more potent here.

Compared with `CC(=O)Nc1cc(-c2cnc(N)c(S(=O)(=O)Nc3cccc(Cl)c3)c2)ccn1` [Compound I-97, N-[6-amino-5-[(3-chlorophenyl)sulamoyl]-3,4′-bipyridin-2′-yl]acetamide], `CC(=O)Nc1cc(-c2cnc(N)c(S(=O)(=O)Nc3ccc4ccccc4c3)c2)ccn1` [Compound I-98, N-[6-amino-5-(2-naphthylsulfamoyl)-3,4′-bipyridin-2′-yl]acetamide] is higher in IC50: less than 10 nM for the first, 10 to 50 nM for the second. The first is the more potent here.

`CC(=O)Nc1cc(-c2cnc(N)c(S(=O)(=O)Cc3ccc(Cl)cc3)c2)ccn1` [Compound I-99, N-[6-amino-5-[(4-chlorobenzyl)sulfonyl]-3,4′-bipyridin-2′-yl]acetamide] and `CC(=O)Nc1cc(-c2cnc(N)c(S(=O)(=O)NCC3CC3)c2)ccn1` [Compound I-108, N-(6-amino-5-[(cyclopropylmethyl)sulfamoyl]-3,4′-bipyridin-2′-yl]acetamide] fall in the same range of IC50: 10 to 50 nM for the first, 10 to 50 nM for the second.

`CC(=O)Nc1cc(-c2cnc(N)c(S(=O)(=O)NC3CCCCC3)c2)ccn1` [Compound I-101, N-[6-amino-5-(cyclohexylsulfamoyl)-3,4′-bipyridin-2′-yl]acetamide] and `CC(=O)Nc1cc(-c2cnc(N)c(S(=O)(=O)N(C)CC3CC3)c2)ccn1` [Compound I-110, N-{6-amino-5-[(cyclopropylmethyl)(methyl)sulfamoyl]-3,4′-bipyridin-2′-yl}acetamide] cannot be ordered by IC50: less than 10 nM for the first, less than 10 nM for the second.

Compared with `CC(=O)Nc1cc(-c2cncc(NS(=O)(=O)c3ccc(F)cc3F)c2C)ccn1` [Compound I-102, N-(5-{[(2,4-difluorophenyl)sulfonyl]amino]-4-methyl-3,4′-bipyridin-2′-yl)acetamide], `COc1ncc(-c2ccnc(NC(C)=O)c2)cc1NS(=O)(=O)c1ccc(F)cc1F` [Compound I-104, N-(5-{[(2,4-difluorophenyl)sulfonyl]amino}-6-methoxy-3,4′-bipyridin-2′-yl)acetamide] is lower in IC50: 10 to 50 nM for the first, less than 10 nM for the second.

`CC(=O)Nc1cc(-c2cncc(NC(=O)Cc3ccccc3)c2)ccn1` [Compound I-106, N-(2′-acetamido-3,4′-bipyridin-5-yl)-2-phenylacetamide] and `CC(=O)Nc1cc(-c2cnc(C)c(NC(=O)c3ccc(F)cc3F)c2)ccn1` [Compound I-115, N-(2′-acetamido-6-methyl-3,4′-bipyridin-5-yl)-2,4-difluorobenzamide] cannot be ordered by IC50: greater than 100 nM for the first, greater than 100 nM for the second.

First: COc1ncc(-c2ccnc(NC(C)=O)c2)cc1S(=O)(=O)Nc1ccc(F)cc1F [Compound I-107, N-{5-[(2,4-difluorophenyl)sulfamoyl]-6-methoxy-3,4′-bipyridin-2′-yl]acetamide]
Second: CC(=O)Nc1cc(-c2cnc(N(C)C)c(C(=O)Nc3ccc(F)cc3F)c2)ccn1 [Compound I-112, 2′-acetamido-N-(2,4-difluorophenyl)-6-(dimethylamino)-3,4′-bipyridine-5-carboxamide]
The IC50 of the first is lower: less than 10 nM for the first, 50 to 100 nM for the second.

First: CC(=O)Nc1cc(-c2cnc(C)c(NS(=O)(=O)c3ccc(OC(F)(F)F)cc3Cl)c2)ccn1 [Compound I-113, N-[5-({[2-chloro-4-(trifluoromethoxy)phenyl]sulfonyl}amino)-6-methyl-3,4′-bipyridin-2′-yl]acetamide]
Second: CC(=O)Nc1cc(-c2cnc3cn[nH]c3c2)ccn1 [Compound I-116, N-[4-(1H-pyrazolo[4,3-b]pyridin-6-yl)pyridin-2-yl]acetamide]
The IC50 of the first is lower: less than 10 nM for the first, greater than 100 nM for the second. The first is the more potent here.

`O=C(Nc1cc(-c2cnc3[nH]ncc3c2)ccn1)C1CC1` [Compound I-117, N-[4-(1H-pyrazolo[3,4-b]pyridin-5-yl)pyridin-2-yl]cyclopropanecarboxamide] and `CC(=O)Nc1cc(-c2cncc(S(=O)(=O)N3CCC(F)(F)C3)c2)ccn1` [Compound I-118, N-{5-[(3,3-difluoropyrrolidin-1-yl)sulfonyl]-3,4′-bipyridin-2′-yl}acetamide] fall in the same range of IC50: 10 to 50 nM for the first, 10 to 50 nM for the second.
